Reference: article PMC8011931, “Identification, Structure–Activity Relationship, and Biological Characterization of 2,3,4,5-Tetrahydro-1H-pyrido[4,3-b]indoles as a Novel Class of CFTR Potentiators” (Journal of Medicinal Chemistry, 2020)
Where two headings read alike, the source gives them in different places.

Assay: Lung tissue distribution after a single oral dose to rats
Format: in vivo
Conditions: Sprague-Dawley, rat, p.o., 10 mg/kg
Experimental: Taking into account both the encouraging results in rescuing the gating defect in mutant CFTR in both primary and secondary biological assays, and the promising in vivo PK profile, we quantified the amount of compound 39 in rat lung tissue, the main target organ for CF treatment. The lung tissue distribution of potentiator 39 was investigated following administration of a single oral dose of 10 mg/kg to Sprague–Dawley rats. Supported by the data obtained in the pharmacokinetic study after oral administration, two time points (2 and 4 h) were selected for collecting plasma and lung tissue samples. The mean concentration vs. time profiles of compound 39 in plasma and lung tissue are reported in Figure S2 (see the Supporting Information).
Three animals per dose and timing were treated. Compound 39 was dissolved in PEG400/Tween80/saline solution at 10/10/80% in volume and administered orally at a dose of 10 mg/kg. After 120 and 240 min, rats were sacrificed and lungs were immediately dissected, frozen on dry ice, and stored at −80 °C until analysis. Lung samples were homogenized in RIPA buffer (150 mM NaCl, 1.0% Triton X-100, 0.5% sodium deoxycholate, 0.1% sodium dodecyl sulfate, 50 mM Tris, and pH 8.0) and then split into two aliquots kept at −80 °C until analysis. An aliquot was used for compound lung-level evaluations. The second aliquot was kept for protein content evaluation using the bicinchoninic acid assay (Thermo Scientific, Rockford, IL, USA).
Plasma samples were centrifuged at 21,100g for 15 min at 4 °C, while homogenized lung samples were vigorously whirled. An aliquot of each sample was extracted (1:3) with cold CH3CN containing 200 nM of an appropriate internal standard being a close analogue of the parent compound. A calibration curve was prepared in both blank mouse plasma and naïve lung homogenate over a 1 nM to 10 μM range. Three quality controls were prepared by spiking the parent compound in both blank mouse plasma and naïve lung homogenate to 20, 200, and 2000 nM as final concentrations. The calibrators and quality controls were extracted (1:3) with the same extraction solution as the plasma and lung samples. The plasma and lung samples, the calibrators, and quality controls were centrifuged at 3270g for 15 min at 4 °C. The supernatants were further diluted (1:1) with H2O and analyzed by LC/MS–MS on a Waters ACQUITY UPLC/MS TQD system consisting of a TQD mass spectrometer equipped with an electrospray ionization interface and a photodiode array eλ detector. Electrospray ionization was applied in the positive mode. […] All samples (plasma and lung samples, calibrators, and quality controls) were quantified by MRM peak area response factor in order to determine the levels of the parent compound in plasma and lung. […]

[1] = lung, read-out: concentration in the lungs

Cc1ccc(F)c2[nH]c3c(c12)CN(C(=O)c1cc(C(F)(F)F)[nH]n1)[C@H](C)C3 [Compound 39, (R)-(6-Fluoro-3,9-dimethyl-1,3,4,5-tetrahydro-2H-pyrido[4,3-b]indol-2-yl)-(5-(trifluoromethyl)-1H-pyrazol-3-yl)methanone]
concentration at 2 h [1]: 4500 ng/g
concentration at 4 h [1]: 2200 ng/g
concentration at 2 h (plasma, read-out: plasma level): 1030 ng/mL
concentration at 4 h (plasma, read-out: plasma level): 675 ng/mL
